Measured values published in paper PMC5772648, “Targeted NUDT5 inhibitors block hormone signaling in breast cancer cells” (Nature Communications, 2018).

How the values were obtained:
[1] = target: T1, NUDT5 in HL-60 cell lysates (Homo sapiens, UniProt Q9UKK9); test: cell lysate CETSA (HT-CETSA); assay type: binding; conditions: 20 µM, 83 °C
T1 construct: endogenous in cells; host or cells: HL-60
Protocol: Target engagement in cells was determined by the cellular thermal shift assay (CETSA)[29]. Briefly, cell lysate thermal shift assays were performed with 1 × 10^6 HL-60 cells per temperature/condition. Cells were collected and washed once with PBS and resuspended in TBS with protease inhibitor cocktail (Mini cOmplete, EDTA-free, Roche) at 60 µL/1 × 10^6 cells. The cells were then aliquoted and lysed by freeze-thawing three times with 3-min incubations (3x, 3 min.+3 min.) using an ethanol/dry ice bath and water bath at 37 °C. The lysates were then centrifuged at 20,000×g for 20 min at 4 °C to remove cellular debris. Supernatants were then transferred to PCR strip tubes and treated with 0.5 µL DMSO (0.8% v/v final) or 20 µM inhibitor for 20 min at room temperature. Lysates with compounds were heated at the indicated temperature in a Veriti Thermal Cycler (Applied Biosystems) for 3 min, then cooled for another 3 min at room temperature. They were then centrifuged at 20 000 × g for 20 min at 4 °C to pellet protein aggregates and 45 µL was removed and prepared for western blotting analysis.

[2] = target: T2, NUDT5 in intact HL-60 cells (Homo sapiens, UniProt Q9UKK9); test: intact cell CETSA; assay type: cell-based; conditions: 20 µM, 83 °C
T2 construct: endogenous in cells; host or cells: HL-60
Protocol: For CETSA experiments with cells treated in culture, 1 × 10^6 HL-60 were treated with DMSO (0.1 % v/v final) or 20 µM compound for 3 h at 37 °C and 5% CO2 in a humidified incubator. T47D^WT cells were treated instead with 80 µM TH1659, 15 µM TH5423/5424 and 1.5 µM TH5427. The cells were harvested, washed twice with PBS and resuspended in TBS with protease inhibitors, as above. Heating was identical as before, except that immediately following heating, the cell suspensions were snap frozen in a dry ice/ethanol bath and freeze-thawed, as previously, to lyse cells. Centrifugation at 20 000 × g for 20 min at 4 °C removed cellular debris and protein aggregates, and lysates were prepared for western blotting.

T47D cells = test: cell viability by resazurin; assay type: cell-based; conditions: 72 h
Protocol: Cell viability was assessed by resazurin[9]. 5000 HL-60 cells (or 1000 U-2 OS/2000 T47D cells) were seeded per well on a 96-well plate. The following morning, compounds (or the equivalent amount of DMSO) were added to obtain the final concentrations indicated and the cells were incubated at 37 °C for 72 h with resazurin added at 0.02 mg/mL for the last 2–6 h. Resorufin fluorescence was detected at […] with a Hidex Sense fluorescent plate reader. Viability curves were fit using the sigmoidal dose-response (variable slope) function in GraphPad Prism 7.

[3] = tested on: nuclear ATP production in T47D^WT cells; test: nuclear ATP visualization by bioluminescence (Nuc-luc reporter) after R5020; assay type: cell-based; conditions: 10 nM R5020
Protocol: (§1) For hormone and inhibitor treatments, normal T47D^WT cells or cells containing a single copy of luciferase under the control of the mouse mammary tumor virus (MMTV) promoter (T47D^M) were used[23]. Prior to hormone induction, cells were grown in phenol red-free RPMI medium supplemented with 10% dextran-coated charcoal-treated FBS (DCC/FBS). After 16 h in serum-free conditions, cells were pre-incubated with DMSO (vehicle) or NUDT5 inhibitor for 2 h at the indicated dose before addition of R5020 (10 nM) or vehicle (ethanol, EtOH) for the allotted time.
T47D^WT cells were seeded in RPMI in black-walled 96-well plates and transfected using Lipofectamine 2000® (Invitrogen, manufacturer’s instructions) with the nuclear-targeted luciferase constructs (Nuc-luc FRTTO[53]) at a final concentration of 50 ng DNA/well for 48 h. 16 h prior to hormone (R5020, 10 nM) exposure, cells were synchronized by serum starvation. Bioluminescence was activated by addition of 100 µl D-luciferin (1 mg/mL water, Sigma) and ATP was quantified using an IVIS system (Xenogen Corp).

[4] = tested on: histone H1 displacement in T47D cells; test: histone H1 displacement by chromatin immunoprecipitation after R5020; assay type: cell-based; conditions: 30 min R5020
Protocol: as §1
ChIP assays were performed using a histone H1-specific antibody, AE4 (Abcam)[54]. 1 × 10^7 T47D^M cells (plated and treated with hormone and/or inhibitor, as described above) were cross-linked for 10 min with 1% formaldehyde. Lysates were sonicated (Biorupter sonicator, Diagenode) resulting in DNA fragments with a size range of 200-300 bp. […] The resultant eluted DNA was quantified by Qubit 3.0 Fluorometer (Life Technologies) and qPCR (LightCycler FastStart DNA Master SYBR Green I, Roche). The fold enrichment of target sequences in the immunoprecipitated (IP) compared to input (I) fractions were calculated using the comparative Ct method (2^Ct(IP)−Ct(I)). […]

What does the source list for `CCN1CCN(c2nc3c(c(=O)n(C)c(=O)n3C)n2Cc2nnc(-c3ccc(Cl)c(Cl)c3)o2)CC1` [TH5424]?
NUDT5 stabilization in cell lysates [1]: showed the most stabilization of NUDT5 in cell lysates; NUDT5 stabilization in intact cells [2]: stabilized NUDT5 to nearly the same levels as observed in the 37 °C DMSO control; toxicity in T47D cells (T47D cells): generally non-toxic when used below 20 µM; nuclear luminescence (nuclear ATP) after R5020 ([3]; 15 µM): strong luminescence was observed; histone H1 displacement after R5020 ([4]; 15 µM): moderate effects

With `Cn1c(=O)c2c(nc(N3CCNCC3)n2Cc2nnc(-c3ccc(Cl)c(Cl)c3)o2)n(C)c1=O` [TH5427] as the compound, how does the “NUDT5 stabilization in cell lysates” value [1] read?
The value was “showed the most stabilization of NUDT5 in cell lysates”.

And the “NUDT5 stabilization in intact cells” value [2]?
The value was “stabilized NUDT5 to nearly the same levels as observed in the 37 °C DMSO control”.

And the “toxicity in T47D cells” value (T47D cells)?
Its value is “generally non-toxic when used below 20 µM”.

And the “nuclear luminescence (nuclear ATP) after R5020” value ([3]; 1.5 µM)?
Its value is “marked reduction in nuclear luminescence”.

What about the “histone H1 displacement after R5020” value ([4]; 1.5 µM) of the same compound?
Its value is “inhibited histone H1 displacement”.
